How the values were obtained:
Format in all cases: cell-based
MRC5 = test: Cytotoxicity against MRC5 cells after 24 hrs by MTT assay; conditions: Homo sapiens, MRC5, 24 h
K562 = test: Cytotoxicity against human K562 cells after 24 hrs by MTT assay; conditions: K562, 24 h
HeLa = test: Cytotoxicity against HeLa cells after 24 hrs by MTT assay; conditions: Homo sapiens
Jurkat = test: Cytotoxicity against Jurkat cells after 24 hrs by MTT assay; conditions: Homo sapiens
HT-29 = test: Cytotoxicity against HT29 cells after 24 hrs by MTT assay; conditions: Homo sapiens, HT-29, 24 h

Structure (SMILES)	IC50 (MRC5) [µM]	IC50 (K562) [µM]	IC50 (HeLa) [µM]	IC50 (Jurkat) [µM]	IC50 (HT-29) [µM]
NC(=O)c1csc([C@@H]2O[C@H](CO)[C@H](N)[C@H]2O)n1	> 100	0.052	0.28	0.06	0.037
CC(=O)N[C@@H]1[C@@H](O)[C@H](c2nc(C(N)=O)cs2)O[C@@H]1CO	89.7	0.095	> 100	0.45	1
NC(=O)c1csc([C@@H]2O[C@H](CO)[C@@H](O)[C@H]2O)n1 [TIAZOFURIN]		5.29	4.76	0.14	

— ChEMBL document CHEMBL1137248, “2-(3-Amino-3-deoxy-beta-D-xylofuranosyl)thiazole-4-carboxamide: a new tiazofurin analogue with potent antitumour activity” (Bioorg Med Chem Lett, 2006)
